Columns and labels:
[1] = system: cancer cell lines; experiment: Cancer cell proliferation activity of representative nucleosides, CellTiterGlo 72 h (Example 7, Tables 8 and 9); format: cell-based; settings: 72 h
Summary of the method: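 Percent viability was set against 0.1% DMSO (100%) and 10 μM staurosporine (0%), with signal from CellTiterGlo luminescence. Dose-response treatment began one day after seeding and lasted 72 h at 37° C under 5% or 10% CO2, with 0.1% final DMSO.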

[2] = system: human LINE-1; experiment: Human LINE-1 (L1) retrotransposition dual-luciferase reporter assay in HeLa cells; format: cell-based; settings: Homo sapiens, HeLa, 72 h, read-out: Human LINE-1 IC50 (Human L1 activity inhibition)
Summary of the method: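 Compound dilution series (final DMSO 0.2%) added right after transfecting HeLa cells with the pYX017 L1 dual-luciferase reporter; 72 h culture at 37 °C, 5% CO2, triplicates. IC50 fitted by non-linear logistic regression to firefly-to-Renilla luminescence ratio (×10,000).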

IC50 ([1]; 72 h, 5637, bladder): 0.37 µM
IC50 ([1]; CLS439, bladder): > 50 µM
IC50 ([1]; HS729, muscle): > 50 µM
IC50 ([1]; J82, bladder): > 50 µM
IC50 ([1]; JAR, placenta): > 50 µM
IC50 ([1]; MT3, breast): > 50 µM
IC50 ([1]; PC3, prostate): > 50 µM
IC50 ([1]; RD, muscle): > 50 µM
IC50 ([1]; T24, bladder): > 50 µM
IC50 ([1]; Homo sapiens, 22Rv1, 72 h, 22RV1, prostate): 3.69 µM
IC50 ([1]; Homo sapiens, 786-0, 72 h, 786O, kidney): > 50 µM
IC50 ([1]; Homo sapiens, A204, 72 h, A204, muscle): > 50 µM
IC50 ([1]; Homo sapiens, A549, 72 h, A549, lung): > 50 µM
IC50 ([1]; Homo sapiens, A673, 72 h, A673, bone): > 50 µM
IC50 ([1]; Homo sapiens, A2780, 72 h, A2780, ovary): > 50 µM
IC50 ([1]; Homo sapiens, A-375, 72 h, A375, skin): > 50 µM
IC50 ([1]; Homo sapiens, A-431, 72 h, A431, skin): 1.42 µM
IC50 ([1]; Homo sapiens, ACHN, kidney): 0.94 µM
IC50 ([1]; Homo sapiens, ASPC1, 72 h, ASPC1, pancreas): 0.49 µM
IC50 ([1]; Homo sapiens, BT-20, 72 h, BT20, breast): > 50 µM
IC50 ([1]; Homo sapiens, BXPC-3, 72 h, BXPC3, pancreas): 0.59 µM
IC50 ([1]; Homo sapiens, C-33-A, C33A, endometrial): 3.07 µM
IC50 ([1]; Homo sapiens, CAKI-1, 72 h, CAKI1, kidney): > 50 µM
IC50 ([1]; Homo sapiens, COLO 205, 72 h, COLO205, colon): 0.87 µM
IC50 ([1]; Homo sapiens, COLO-678, 72 h, COLO678, colon): > 50 µM
IC50 ([1]; Homo sapiens, Ca-Ski, CASKI, endometrial): > 50 µM
IC50 ([1]; Homo sapiens, Caco-2, 72 h, CACO2, colon): > 50 µM
IC50 ([1]; Homo sapiens, Calu-6, 72 h, CALU6, lung): > 50 µM
IC50 ([1]; Homo sapiens, DLD-1, 72 h, DLD1, colon): > 50 µM
IC50 ([1]; Homo sapiens, DU-145, 72 h, DU145, prostate): > 50 µM
IC50 ([1]; Homo sapiens, EFO-21, 72 h, EFO21, ovary): > 50 µM
IC50 ([1]; Homo sapiens, EJ-28, 72 h, EJ28, bladder): > 50 µM
IC50 ([1]; Homo sapiens, Granta-519, 72 h, GRANTA-519, hematological): 0.35 µM
IC50 ([1]; Homo sapiens, HCT-15, 72 h, HCT15, colon): > 50 µM
IC50 ([1]; Homo sapiens, HCT-116, 72 h, HCT116, colon): > 50 µM
IC50 ([1]; Homo sapiens, HEK293, 72 h, HEK293, kidney): > 50 µM
IC50 ([1]; Homo sapiens, HL-60, 72 h, HL-60, hematological): > 50 µM
IC50 ([1]; Homo sapiens, HT-29, 72 h, HT29, colon): > 50 µM
IC50 ([1]; Homo sapiens, HT-1080, 72 h, HT1080, connective tissue): > 50 µM
IC50 ([1]; Homo sapiens, HeLa, endometrial): > 50 µM
IC50 ([1]; Homo sapiens, HepG2, 72 h, HEPG2, liver): > 50 µM
IC50 ([1]; Homo sapiens, Hs-578T, HS578T, breast): > 50 µM
IC50 ([1]; Homo sapiens, IGROV-1, 72 h, IGROV1, ovary): > 50 µM
IC50 ([1]; Homo sapiens, IMR-90, 72 h, IMR90, lung): > 50 µM
IC50 ([1]; Homo sapiens, JEG-3, 72 h, JEG3, placenta): > 50 µM
IC50 ([1]; Homo sapiens, JIMT-1, 72 h, JIMT1, breast): > 50 µM
IC50 ([1]; Homo sapiens, K562, 72 h, K-562, hematological): > 50 µM
IC50 ([1]; Homo sapiens, Kasumi 1, 72 h, KASUMI-1, hematological): > 50 µM
IC50 ([1]; Homo sapiens, L-363, 72 h, L-363, hematological): > 50 µM
IC50 ([1]; Homo sapiens, LoVo, colon): 2.06 µM
IC50 ([1]; Homo sapiens, MCF7, 72 h, MCF7, breast): > 50 µM
IC50 ([1]; Homo sapiens, MDA-MB-231, 72 h, MDAMB231, breast): > 50 µM
IC50 ([1]; Homo sapiens, MDA-MB-435, 72 h, MDAMB435, skin): > 50 µM
IC50 ([1]; Homo sapiens, MDA-MB-436, 72 h, MDAMB436, breast): > 50 µM
IC50 ([1]; Homo sapiens, MDA-MB-468, 72 h, MDAMB468, breast): > 50 µM
IC50 ([1]; Homo sapiens, MG-63, 72 h, MG63, bone): > 50 µM
IC50 ([1]; Homo sapiens, MHH-ES-1, 72 h, MHHES1, bone): > 50 µM
IC50 ([1]; Homo sapiens, MIA PaCa-2, 72 h, MIAPACA2, pancreas): > 50 µM
IC50 ([1]; Homo sapiens, MINO, hematological): 0.06 µM
IC50 ([1]; Homo sapiens, MV4-11, 72 h, MV4-11, hematological): 1.72 µM
IC50 ([1]; Homo sapiens, NCI-H23, 72 h, NCI-H23, lung): > 50 µM
IC50 ([1]; Homo sapiens, NCI-H82, 72 h, NCIH82, lung): > 50 µM
IC50 ([1]; Homo sapiens, NCI-H292, 72 h, NCIH292, lung): > 50 µM
IC50 ([1]; Homo sapiens, NCI-H460, 72 h, NCIH460, ung): > 50 µM
IC50 ([1]; Homo sapiens, OVCAR-3, 72 h, OVCAR3, ovary): > 50 µM
IC50 ([1]; Homo sapiens, OVCAR-4, 72 h, OVCAR4, ovary): > 50 µM
IC50 ([1]; Homo sapiens, PANC-1, 72 h, PANC1, pancreas): > 50 µM
IC50 ([1]; Homo sapiens, PLC-PRF-5, 72 h, PLCPRF5, liver): > 50 µM
IC50 ([1]; Homo sapiens, Panc1005, 72 h, PANC1005, pancreas): > 50 µM
IC50 ([1]; Homo sapiens, Ramos, hematological): 1.18 µM
IC50 ([1]; Homo sapiens, SAOS-2, 72 h, SAOS2, bone): > 50 µM
IC50 ([1]; Homo sapiens, SF-268, 72 h, SF268, brain): > 50 µM
IC50 ([1]; Homo sapiens, SF-295, 72 h, SF295, brain): > 50 µM
IC50 ([1]; Homo sapiens, SK-BR-3, 72 h, SKBR3, breast): 0.37 µM
IC50 ([1]; Homo sapiens, SK-HEP1, 72 h, SKHEP1, liver): > 50 µM
IC50 ([1]; Homo sapiens, SK-LMS-1, 72 h, SKLMS1, uterus): > 50 µM
IC50 ([1]; Homo sapiens, SK-MEL-5, 72 h, SKMEL5, skin): > 50 µM
IC50 ([1]; Homo sapiens, SK-MEL-28, 72 h, SKMEL28, skin): > 50 µM
IC50 ([1]; Homo sapiens, SK-N-AS, SKNAS, brain): > 50 µM
IC50 ([1]; Homo sapiens, SK-N-SH, SKNSH, brain): > 50 µM
IC50 ([1]; Homo sapiens, SK-OV-3, 72 h, SKOV3, ovary): > 50 µM
IC50 ([1]; Homo sapiens, SNB-75, 72 h, SNB75, brain): > 50 µM
IC50 ([1]; Homo sapiens, SU-DHL10, 72 h, SU-DHL-10, hematological): 3.86 µM
IC50 ([1]; Homo sapiens, SU-DHL-6, 72 h, SU-DHL-6, hematological): 1.3 µM
IC50 ([1]; Homo sapiens, SW-620, 72 h, SW620, colon): > 50 µM
IC50 ([1]; Homo sapiens, TE-671, 72 h, TE671, muscle): > 50 µM
IC50 ([1]; Homo sapiens, THP-1, 72 h, THP-1, hematological): > 50 µM
IC50 ([1]; Homo sapiens, U2OS, bone): > 50 µM
IC50 ([1]; Homo sapiens, U-87 MG, U87MG, brain): > 50 µM
IC50 ([1]; Homo sapiens, UMUC3, 72 h, UMUC3, bladder): > 50 µM
IC50 ([1]; Homo sapiens, UO-31, 72 h, UO31, kidney): > 50 µM
IC50 ([1]; Homo sapiens, WSU-NHL, hematological): 0.87 µM
IC50 ([1]; NCI-H358M, NCIH358M, lung): 0.67 µM
IC50 ([1]; PBMC, hematological): > 50 µM
IC50 ([1]; RD-ES, RDES, bone): > 50 µM
IC50 [2]: 0.833 µM
Structure (SMILES): C#C[C@]1(CO)O[C@@H](n2cc(F)c(=O)[nH]c2=O)C[C@@H]1O [compound 15]

— US20230293526A1, “METHOD FOR TREATING CANCER WITH A REVERSE TRANSCRIPTASE INHIBITOR” (PrimeFour Therapeutics, Inc., priority 2020, published 2023)
